What was measured:
[1] = test system: rat model of transient middle cerebral artery occlusion; experiment: Rat t-MCAO: brain infarct size (TTC staining, ImageJ); format: in vivo; settings: for Relative brain infarct volume on Day 7 (%) (mean + SD) / percentage change of relative brain infarct volume on Day 7 vs the control group: repeated administration (7 days); for efficacy when administered as monotherapies: low doses, monotherapy
Experimental: (§1) Test compounds were administrated intravenously 20 minutes before reperfusion and then twice a day thereafter for six consecutive days. The modified neurological severity score (NSS) was graded on a scale of 0 to 18 (in which normal score was 0 and maximal deficit score was represented by 18), on Study Day 2 (one day following surgery) and on Study Day 7 (7 days post-surgery and before study termination); it included a set of clinical-neurological tests (composite of motor, sensory, reflex and balance tests). At study termination brains were harvested, sliced into five 2 mm thick coronal sections and stained with triphenyl tetrazolium chloride (TTC) for infarct size measurement using ImageJ program. Morbidity, mortality, body weight and clinical observation were also recorded. […] The statistical significance (P) of treated groups vs the untreated control group was determined using two-way ANOVA followed by Bonferroni post hoc test, using GraphPad Prism 5 program.
(§2) Due to mortality in some of the groups, the numbers within the groups were adjusted to have sufficient animals in all the groups.
(§3) In study Part II, a total of 86 SD male rats (270-320 gr upon arrival) were divided into 9 groups (7 or 15 rats per treated group and 6 rats in the control group). Due to mortality in some of the groups, the numbers within the groups were adjusted to have sufficient animals in all the groups.

[2] = test system: rat model of transient middle cerebral artery occlusion; experiment: Rat t-MCAO: modified neurological severity score (NSS), scale 0 to 18; format: in vivo; settings: for modified neurological severity score (NSS) compared with the control group on Day 2 / modified neurological severity score (NSS) compared with the control group on Day 7: monotherapy; for Modified NSS on Day 2 (mean + SD) / Modified NSS on Day 7 (mean + SD) / percentage change of Modified NSS on Day 2 vs the control group / percentage change of Modified NSS on Day 7 vs the control group: repeated administration (7 days)
Experimental: as §1, §2, §3

[3] = test system: rat thromboembolic model of stroke; settings: continuous infusion (75 ng/h), at 7 days post middle cerebral artery occlusion; cited from earlier work
[4] = test system: rat model of stroke (middle cerebral artery occlusion); settings: 10 μg/kg IP loading dose plus 200 ng/h sc infusion beginning 4.5 h or 10 h after onset of ischemia; cited from earlier work
[5] = Treatment I: glibenclamide 1 μg/Kg iv
[6] = Treatment J: glibenclamide 3 μg/Kg iv
[7] = Treatment K: glibenclamide 10 μg/Kg iv
[8] = Treatment L: glibenclamide 30 μg/Kg iv
[9] = lowest doses (treatments A, E and I)
[10] = Treatment F: potassium canrenoate 1 mg/Kg iv
[11] = Treatment G: potassium canrenoate 3 mg/Kg iv
[12] = Treatment H: potassium canrenoate 10 mg/Kg iv

## COc1ccc(Cl)cc1C(=O)NCCc1ccc(S(=O)(=O)NC(=O)NC2CCCCC2)cc1 [GLIBENCLAMIDE, 5-chloro-N-[2-[4-(cyclohexylcarbamoyl-sulfamoyl)phenyl]ethyl]-2-methoxybenzamide]
[1]; [5]
  Relative brain infarct volume on Day 7 (%) (mean + SD): 33 ± 10%
  percentage change of relative brain infarct volume on Day 7 vs the control group: [−21%; NS]
[1]; [6]
  Relative brain infarct volume on Day 7 (%) (mean + SD): 19 ± 9%
  percentage change of relative brain infarct volume on Day 7 vs the control group: [−55%; ***]
[1]; [7]
  Relative brain infarct volume on Day 7 (%) (mean + SD): 16 ± 9%
  percentage change of relative brain infarct volume on Day 7 vs the control group: [−62%; ***]
[1]; [8]
  Relative brain infarct volume on Day 7 (%) (mean + SD): 17 ± 8%
  percentage change of relative brain infarct volume on Day 7 vs the control group: [−60%; ***]
[1]
  efficacy when administered as monotherapies: ineffective
[2]; 3 μg/kg dose (treatment J)
  modified neurological severity score (NSS) compared with the control group on Day 2: did not show a statistically significant decrease
[2]; [5]
  Modified NSS on Day 2 (mean + SD): 14 ± 1
  Modified NSS on Day 7 (mean + SD): 12 ± 1
  percentage change of Modified NSS on Day 2 vs the control group: [0%; NS]
  percentage change of Modified NSS on Day 7 vs the control group: [−8%; NS]
[2]; [6]
  Modified NSS on Day 2 (mean + SD): 13 ± 3
  Modified NSS on Day 7 (mean + SD): 10 ± 1
  percentage change of Modified NSS on Day 2 vs the control group: [−7%; NS]
  percentage change of Modified NSS on Day 7 vs the control group: [−23%; *]
[2]; [7]
  Modified NSS on Day 2 (mean + SD): 11 ± 3
  Modified NSS on Day 7 (mean + SD): 8 ± 2
  percentage change of Modified NSS on Day 2 vs the control group: [−21%; **]
  percentage change of Modified NSS on Day 7 vs the control group: [−38%; ***]
[2]; [8]
  Modified NSS on Day 2 (mean + SD): 11 ± 3
  Modified NSS on Day 7 (mean + SD): 8 ± 1
  percentage change of Modified NSS on Day 2 vs the control group: [−21%; **]
  percentage change of Modified NSS on Day 7 vs the control group: [−38%; ***]
[2]; [9]
  modified neurological severity score (NSS) compared with the control group on Day 2: did not show a statistically significant decrease
  modified neurological severity score (NSS) compared with the control group on Day 7: did not show a statistically significant decrease
[3]
  reduction of cerebral edema, infarct volume and mortality: 50%
[4]
  hemispheric swelling at 24 h and 48-h mortality: significantly reduced

## C[C@]12CCC(=O)C=C1C=C[C@@H]1[C@@H]2CC[C@@]2(C)[C@H]1CC[C@@]2(O)CCC(=O)[O-].[K+] [POTASSIUM CANRENOATE, potassium 3-[(8R,9S,10R,13S,14S,17R)-17-hydroxy-10,13-dimethyl-3-oxo-2,8,9,11,12,14,15,16 octahydro-1H-cyclopenta[a]phenanthren-17-yl]propanoate]
[1]; [10]
  Relative brain infarct volume on Day 7 (%) (mean + SD): 15 ± 6%
  percentage change of relative brain infarct volume on Day 7 vs the control group: [−64%; ***]
[1]; [11]
  Relative brain infarct volume on Day 7 (%) (mean + SD): 28 ± 11%
  percentage change of relative brain infarct volume on Day 7 vs the control group: [−33%; **]
[1]; [12]
  Relative brain infarct volume on Day 7 (%) (mean + SD): 12 ± 3%
  percentage change of relative brain infarct volume on Day 7 vs the control group: [−71%; ***]
[1]
  efficacy when administered as monotherapies: ineffective
[2]; [10]
  Modified NSS on Day 2 (mean + SD): 12 ± 3
  Modified NSS on Day 7 (mean + SD): 8 ± 1
  percentage change of Modified NSS on Day 2 vs the control group: [−14%; *]
  percentage change of Modified NSS on Day 7 vs the control group: [−38%; ***]
[2]; [11]
  Modified NSS on Day 2 (mean + SD): 11 ± 2
  Modified NSS on Day 7 (mean + SD): 10 ± 2
  percentage change of Modified NSS on Day 2 vs the control group: [−21%; *]
  percentage change of Modified NSS on Day 7 vs the control group: [−23%; *]
[2]; [12]
  Modified NSS on Day 2 (mean + SD): 10 ± 1
  Modified NSS on Day 7 (mean + SD): 8 ± 1
  percentage change of Modified NSS on Day 2 vs the control group: [−29%; **]
  percentage change of Modified NSS on Day 7 vs the control group: [−38%; ***]
[2]; [9]
  modified neurological severity score (NSS) compared with the control group on Day 2: did not show a statistically significant decrease
  modified neurological severity score (NSS) compared with the control group on Day 7: did not show a statistically significant decrease

— US20220265776A1, “COMBINATION” (GENESIS PHARMA SA, priority 2019, published 2022)
